How the values were obtained:
[1] = system: wild poinsettia; experiment: Test E preemergence herbicide test; format: in vivo, Euphorbia heterophylla; set-up: key: 0 = no effect, 100 = complete control
Description: (§1) Seeds of plant species selected from corn (Zea mays), soybean (Glycine max), velvetleaf (Abutilon theophrasti), lambsquarters (Chenopodium album), wild poinsettia (Euphorbia heterophylla), pigweed, palmer (palmer pigweed, Amaranthus palmeri), waterhemp (common waterhemp, Amaranthus rudis), surinam grass (Brachiaria decumbens), crabgrass, large (large crabgrass, Digitaria sanguinalis), crabgrass, Brazil (Brazilian crabgrass, Digitaria horizontalis), panicum, fall (fall panicum, Panicum dichotomiflorum), foxtail, giant (giant foxtail, Setaria faberii), foxtail, green (green foxtail, Setaria viridis), goosegrass (Eleusine indica), johnsongrass (Sorghum halepense), ragweed (common ragweed, Ambrosia elatior), barnyardgrass (Echinochloa crus-galli), sandbur (southern sandbur, Cenchrus echinatus), arrowleaf […] rhombifolia), ryegrass, Italian (Italian ryegrass, Lolium multiflorum), dayflower, VA (Virginia dayflower, Commelina virginica), field bindweed (Convolvulus arvensis), morningglory (Ipomoea coccinea), nightshade (eastern black nightshade, Solanum ptycanthum), kochia (Kochia scoparia), nutsedge, yellow (yellow nutsedge, Cyperus esculentus), cocklebur (common cocklebur, Xanthium strumarium), smartweed (ladysthumb smartweed, Polygonum Persicaria) and beggarticks (hairy beggarticks, Bidens pilosa), were planted into a silt loam soil and treated preemergence with test chemicals formulated in a non-phytotoxic solvent mixture which included a surfactant. Treated plants and controls were maintained in a greenhouse for 21 days, after which time all species were compared to controls and visually evaluated. Plant response ratings, summarized in Table E, are based on a scale of 0 to 100 where 0 is no effect and 100 is complete control. A dash (-) response means no test result.

[2] = system: foxtail, green; experiment: Test E preemergence herbicide test; format: in vivo, Setaria viridis; set-up: key: 0 = no effect, 100 = complete control
Description: as §1

[3] = system: goosegrass; experiment: Test E preemergence herbicide test; format: in vivo, Eleusine indica; set-up: key: 0 = no effect, 100 = complete control
Description: as §1

[4] = system: morningglory; experiment: Test E preemergence herbicide test; format: in vivo, Ipomoea coccinea; set-up: key: 0 = no effect, 100 = complete control
Description: as §1

[5] = system: canarygrass; experiment: Test D pre-/postemergence herbicide test; format: in vivo, Phalaris minor; settings: Postemergence, Canarygrass, scale 0 to 100
Summary of the method: (§2)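 Visual ratings from 0 (no effect) to 100 (complete control) were made against untreated controls 7 to 21 days after treatment. Application was both preemergence, on silt loam soil, and postemergence, to 1- to 4-leaf plants 2-18 cm tall; compounds were formulated in a non-phytotoxic surfactant-containing solvent.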

[6] = system: ryegrass, Italian; experiment: Test D pre-/postemergence herbicide test; format: in vivo, Lolium multiflorum; settings: Postemergence, Ryegrass, Italian, scale 0 to 100
Summary of the method: as §2

[7] = system: pigweed; experiment: Test D pre-/postemergence herbicide test; format: in vivo, Amaranthus retroflexus; settings: Postemergence, Pigweed, scale 0 to 100
Summary of the method: as §2

[8] = system: Russian thistle; experiment: Test D pre-/postemergence herbicide test; format: in vivo, Salsola kali; settings: Postemergence, Russian Thistle, scale 0 to 100
Summary of the method: as §2

[9] = system: speedwell; experiment: Test D pre-/postemergence herbicide test; format: in vivo, Veronica persica; settings: Postemergence, Speedwell, scale 0 to 100
Summary of the method: as §2

[10] = system: barley, spring; experiment: Test D pre-/postemergence herbicide test; format: in vivo, Hordeum vulgare; settings: Postemergence, Barley, Spring, scale 0 to 100
Summary of the method: as §2

[11] = system: barley, winter; experiment: Test D pre-/postemergence herbicide test; format: in vivo, Hordeum vulgare; settings: Postemergence, Barley, Winter, scale 0 to 100
Summary of the method: as §2

[12] = system: windgrass; experiment: Test D pre-/postemergence herbicide test; format: in vivo, Apera spica-venti; settings: Postemergence, Windgrass, scale 0 to 100
Summary of the method: as §2

Compound: O=C1NCC(c2ccc(F)cc2)C1C(=O)Nc1ccccc1F (racemic) [Compound 16]
- Plant response rating, Poinsettia, Wild ([1]; 16 g ai/ha): 0
- Plant response rating, Poinsettia, Wild ([1]; 31 g ai/ha): 0
- Plant response rating, Poinsettia, Wild ([1]; 62 g ai/ha): 0
- Plant response rating, Poinsettia, Wild ([1]; 125 g ai/ha): 0
- Plant response rating, Poinsettia, Wild ([1]; 250 g ai/ha): 0
- Plant response rating, Foxtail, Green ([2]; 16 g ai/ha): 0
- Plant response rating, Foxtail, Green ([2]; 31 g ai/ha): 0
- Plant response rating, Foxtail, Green ([2]; 62 g ai/ha): 10
- Plant response rating, Foxtail, Green ([2]; 125 g ai/ha): 25
- Plant response rating, Foxtail, Green ([2]; 250 g ai/ha): 95
- Plant response rating, Goosegrass ([3]; 16 g ai/ha): 0
- Plant response rating, Goosegrass ([3]; 31 g ai/ha): 0
- Plant response rating, Goosegrass ([3]; 62 g ai/ha): 0
- Plant response rating, Goosegrass ([3]; 125 g ai/ha): 0
- Plant response rating, Goosegrass ([3]; 250 g ai/ha): 0
- Plant response rating, Morningglory ([4]; 16 g ai/ha): 0
- Plant response rating, Morningglory ([4]; 31 g ai/ha): 0
- Plant response rating, Morningglory ([4]; 62 g ai/ha): 0
- Plant response rating, Morningglory ([4]; 125 g ai/ha): 0
- Plant response rating, Morningglory ([4]; 250 g ai/ha): 0

Compound: O=C1NCC(c2cc(F)c(F)c(F)c2)C1C(=O)Nc1ccccc1C(F)(F)F (racemic) [Compound 33]
- Plant response rating ([5]; 16 g ai/ha): 0
- Plant response rating ([5]; 31 g ai/ha): 0
- Plant response rating ([5]; 62 g ai/ha): 0
- Plant response rating ([5]; 125 g ai/ha): 0
- Plant response rating ([5]; 250 g ai/ha): 0
- Plant response rating ([6]; 16 g ai/ha): 0
- Plant response rating ([6]; 31 g ai/ha): 0
- Plant response rating ([6]; 62 g ai/ha): 0
- Plant response rating ([6]; 125 g ai/ha): 0
- Plant response rating ([6]; 250 g ai/ha): 0
- Plant response rating ([7]; 16 g ai/ha): 0
- Plant response rating ([7]; 31 g ai/ha): 0
- Plant response rating ([7]; 62 g ai/ha): 0
- Plant response rating ([7]; 125 g ai/ha): 10
- Plant response rating ([7]; 250 g ai/ha): 10
- Plant response rating ([8]; 16 g ai/ha): 0
- Plant response rating ([8]; 31 g ai/ha): 0
- Plant response rating ([8]; 62 g ai/ha): 0
- Plant response rating ([8]; 125 g ai/ha): 0
- Plant response rating ([8]; 250 g ai/ha): 0
- Plant response rating ([9]; 16 g ai/ha): 0
- Plant response rating ([9]; 31 g ai/ha): 0
- Plant response rating ([9]; 62 g ai/ha): 0
- Plant response rating ([9]; 125 g ai/ha): 0
- Plant response rating ([9]; 250 g ai/ha): 10
- Plant response rating ([10]; 16 g ai/ha): 0
- Plant response rating ([10]; 31 g ai/ha): 0
- Plant response rating ([10]; 62 g ai/ha): 0
- Plant response rating ([10]; 125 g ai/ha): 0
- Plant response rating ([10]; 250 g ai/ha): 0
- Plant response rating ([11]; 16 g ai/ha): 0
- Plant response rating ([11]; 31 g ai/ha): 0
- Plant response rating ([11]; 62 g ai/ha): 0
- Plant response rating ([11]; 125 g ai/ha): 0
- Plant response rating ([11]; 250 g ai/ha): 0
- Plant response rating ([12]; 16 g ai/ha): 0
- Plant response rating ([12]; 31 g ai/ha): 0
- Plant response rating ([12]; 62 g ai/ha): 0
- Plant response rating ([12]; 125 g ai/ha): 0
- Plant response rating ([12]; 250 g ai/ha): 0

Compound: O=C1NCC(c2cc(F)c(F)c(F)c2)C1C(=O)Nc1ccccc1F (racemic) [Compound 34]
- Plant response rating ([5]; 16 g ai/ha): 0
- Plant response rating ([5]; 31 g ai/ha): 0
- Plant response rating ([5]; 62 g ai/ha): 0
- Plant response rating ([5]; 125 g ai/ha): 0
- Plant response rating ([5]; 250 g ai/ha): 0
- Plant response rating ([6]; 16 g ai/ha): 0
- Plant response rating ([6]; 31 g ai/ha): 0
- Plant response rating ([6]; 62 g ai/ha): 0
- Plant response rating ([6]; 125 g ai/ha): 0
- Plant response rating ([6]; 250 g ai/ha): 0
- Plant response rating ([7]; 16 g ai/ha): 0
- Plant response rating ([7]; 31 g ai/ha): 0
- Plant response rating ([7]; 62 g ai/ha): 0
- Plant response rating ([7]; 125 g ai/ha): 0
- Plant response rating ([7]; 250 g ai/ha): 10
- Plant response rating ([8]; 16 g ai/ha): 0
- Plant response rating ([8]; 31 g ai/ha): 0
- Plant response rating ([8]; 62 g ai/ha): 0
- Plant response rating ([8]; 125 g ai/ha): 0
- Plant response rating ([8]; 250 g ai/ha): 0
- Plant response rating ([9]; 16 g ai/ha): 0
- Plant response rating ([9]; 31 g ai/ha): 0
- Plant response rating ([9]; 62 g ai/ha): 0
- Plant response rating ([9]; 125 g ai/ha): 0
- Plant response rating ([9]; 250 g ai/ha): 30
- Plant response rating ([10]; 16 g ai/ha): 0
- Plant response rating ([10]; 31 g ai/ha): 0
- Plant response rating ([10]; 62 g ai/ha): 0
- Plant response rating ([10]; 125 g ai/ha): 0
- Plant response rating ([10]; 250 g ai/ha): 0
- Plant response rating ([11]; 16 g ai/ha): 0
- Plant response rating ([11]; 31 g ai/ha): 0
- Plant response rating ([11]; 62 g ai/ha): 0
- Plant response rating ([11]; 125 g ai/ha): 0
- Plant response rating ([11]; 250 g ai/ha): 0
- Plant response rating ([12]; 16 g ai/ha): 0
- Plant response rating ([12]; 31 g ai/ha): 0
- Plant response rating ([12]; 62 g ai/ha): 0
- Plant response rating ([12]; 125 g ai/ha): 0
- Plant response rating ([12]; 250 g ai/ha): 0

— patent US10294202B2, “Pyrrolidinones as herbicides” (FMC Corporation, priority 2013, dated 2019)
